In assay [1] the target is T1, ferroportin (Homo sapiens, UniProt Q9NP59).
T1 sequence (Q9NP59 1-571): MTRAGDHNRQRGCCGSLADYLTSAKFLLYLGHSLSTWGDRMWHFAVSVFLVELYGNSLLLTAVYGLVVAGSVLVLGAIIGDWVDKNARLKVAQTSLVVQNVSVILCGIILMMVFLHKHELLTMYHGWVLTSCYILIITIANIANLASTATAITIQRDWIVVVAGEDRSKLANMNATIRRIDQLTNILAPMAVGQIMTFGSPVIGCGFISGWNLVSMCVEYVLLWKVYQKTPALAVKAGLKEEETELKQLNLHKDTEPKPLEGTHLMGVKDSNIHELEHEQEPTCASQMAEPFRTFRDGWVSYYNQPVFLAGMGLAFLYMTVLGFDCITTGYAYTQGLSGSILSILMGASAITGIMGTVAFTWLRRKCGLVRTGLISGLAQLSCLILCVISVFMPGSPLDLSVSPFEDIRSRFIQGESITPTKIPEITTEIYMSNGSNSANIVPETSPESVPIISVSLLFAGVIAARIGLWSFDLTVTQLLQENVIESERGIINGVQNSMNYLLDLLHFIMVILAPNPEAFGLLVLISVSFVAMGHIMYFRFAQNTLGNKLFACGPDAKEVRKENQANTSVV
Kind of assay: FPN activity assay: ferroportin-GFP internalization/degradation in HEK293 cells. Format: cell-based. On the set-up: expressed in transfected cells. Conditions: read-out: FPN IC50. As to the method: Following internalization, the ferroporin protein is degraded.
A retro inverse peptide is a peptide with a reversed sequence in all D amino acids. An example is that Hy-Glu-Thr-His-NH2 becomes Hy-DHis-DThr-DGlu-NH2. The EC50 of these reference compounds for ferroportin internalization/degradation was determined according to the FPN activity assay described above. These peptides served as control standards.

Assay [2] concerns the target T1, ferroportin. The assay can be described thus: T47D cell-based ferroportin internalization assay in presence of mouse serum albumin (MSA). Details: a human breast carcinoma adherent cell line which endogenously expresses ferroportin; host or cells: T47D. The procedure, abridged: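 Peptide potency for inducing ferroportin internalization was measured in T47D cells in the presence of serum albumin. Cells grown in RPMI with fetal bovine serum were seeded in 96-well plates at 80-100 k cells per well in 100 ul and rested overnight. Dilution series of test peptides were preincubated 30 min at room temperature, then added to the cells after the medium was aspirated.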

[3] abbreviates: ferroportin-GFP internalization/degradation, HEK293 cells, Table 6E.
[4] abbreviates: T47D internalization assay in presence of mouse serum albumin (MSA), Table 6E.
Setting [5] is: Table 6E, ferroportin-GFP internalization/degradation, at least 18 hours incubation.
[6] abbreviates: Table 6E, T47D internalization assay with MSA.
Setting [7] is: ferroportin-GFP HEK293 cells, at least 18 hours.
The mark [8] stands for this setting: T47D cells, 0.5% mouse serum albumin, 1 hr incubation.

pIC50: −log10 of the molar value. Like-named read-outs stand apart in the source and are kept apart here. Starred links: 1 amine or outer side, 2 acyl side, 3 side chain; linkers in the order of their positions; H or OH if unused. Positions of bridges follow the written chain, without caps; N, C: chain ends. Non-standard residues stand in square brackets, D forms with d. Residues, ends and D or L forms follow the SMILES beside them. Groups on a side chain read outwards from the residue. *: point of attachment. X1 = C[N+](C)(CCNC(=O)CCCCCCCCCCCCCCCCC(=O)O)CC(=O)*; Ala(quinolin-3-yl) = N[C@@H](Cc1cnc2ccccc2c1)C(=O)O; X5 = CCCCCCCCCCCCCCCC(=O)NCC[N+](C)(C)CC(=O)*; C18 diacid = O=C(O)CCCCCCCCCCCCCCCCC(=O)*; Dip = N[C@H](C(=O)O)C(c1ccccc1)c1ccccc1; γGlu = O=C(O)[C@H](CCC(=O)[*:2])N[*:1]; NHCH2CHPh2 = c1ccc(C(CN*)c2ccccc2)cc1; Palmitoyl = CCCCCCCCCCCCCCCC(=O)*; β3hF = N[C@H](CC(=O)O)Cc1ccccc1; NMeK = CN[C@@H](CCCCN)C(=O)O; Pen = CC(C)(S)[C@H](N)C(=O)O; Isovaleryl = CC(C)CC(=O)*; NMeS = CN[C@@H](CO)C(=O)O; Dap = NC[C@H](N)C(=O)O; AEEA = NCCOCCOCC(=O)O; Ahx = NCCCCCC(=O)O Where only a bound is given, the exact number is not on record here.

Consider twelve molecules from patent US20250277012A1 (Protagonist Therapeutics, Inc., priority 2021, published 2025).

As for `CC(C)CC(=O)N[C@@H](CCC(=O)O)C(=O)N[C@H](C(=O)N[C@@H](Cc1cnc2ccccc2c1)C(=O)N[C@H](C(=O)N1CCC[C@H]1C(=O)N[C@H]1CSSC[C@@H](C(=O)N(C)[C@@H](CCCCNC(=O)COCCOCCNC(=O)COCCOCCNC(=O)[C@H](CN)NC(=O)CCCCCCCCCCCCCCCCC(=O)O)C(=O)N[C@H](CC(=O)N[C@H](CCCCN)C(N)=O)Cc2ccccc2)NC1=O)C(c1ccccc1)c1ccccc1)[C@@H](C)O` [compound 296] (Isovaleryl-ET[Ala(quinolin-3-yl)][Dip]PCC[NMeK]([AEEA-AEEA-Dap-C18 diacid])[β3hF][dK]-NH2; disulfide 6-7), the DC50 on ferroportin [1] (setting [3]) was more than 500 nM. For the same molecule, the negative logarithm of the IC50 (pIC50) – broadly, the negative decadic logarithm of the IC50, by convention in mol/L – at ferroportin [2] (setting [4]) is less than 6.30.
For the molecule `CCCCCCCCCCCCCCCC(=O)NCC[N+](C)(C)CC(=O)NCCCC[C@@H](C(=O)N[C@H](C(=O)N[C@H](CCCCN)C(N)=O)C(c1ccccc1)c1ccccc1)N(C)C(=O)[C@@H]1CSSC[C@H](NC(=O)[C@@H]2CCCN2C(=O)[C@@H](NC(=O)[C@H](Cc2cnc[nH]2)NC(=O)[C@@H](NC(=O)[C@H](CCC(=O)O)NC(=O)CC(C)C)[C@@H](C)O)C(c2ccccc2)c2ccccc2)C(=O)N1` [compound 194] (Isovaleryl-ETH[Dip]PCC[NMeK](X5)[Dip][dK]-NH2; disulfide 6-7), the DC50 at ferroportin [1] (setting [5]) fell in the range of 10 to 100 nM. Besides, on ferroportin [2] (setting [6]), the pIC50 is 8.00 to 9.00.
Regarding `CCCCCCCCCCCCCCCC(=O)NCCCCCC(=O)NCCCC[C@H](NC(=O)C[C@H](Cc1ccccc1)NC(=O)[C@@H](CCCCN)NC(=O)[C@@H](NC(=O)[C@H](C)NC(=O)[C@@H]1CSSC[C@H](NC(=O)[C@H](CCC(=O)O)NC(=O)CC(C)C)C(=O)N[C@@H](Cc2c[nH]cn2)C(=O)N[C@@H](C(c2ccccc2)c2ccccc2)C(=O)N1)[C@@H](C)CC)C(=O)N[C@H](CCCCN)C(=O)N[C@@H](C)C(N)=O` [Compd 45] (Isovaleryl-ECH[Dip]CAI[dK][β3hF]K([Ahx-Palmitoyl])[dK]A-NH2; disulfide 2-5), the DC50 on ferroportin [1] (setting [7]) was in the range of 10 to 100 nM. For the same molecule, the negative logarithm of the IC50 (pIC50) on ferroportin [2] (setting [8]) was 8.00 to 9.00.
The corresponding values for `CC[C@H](C)[C@@H]1NC(=O)[C@@H](NC(=O)[C@@H]2CCCN2C(=O)[C@@H](NC(=O)[C@H](Cc2c[nH]cn2)NC(=O)[C@@H](NC(=O)[C@H](CCC(=O)O)NC(=O)CC(C)C)[C@@H](C)O)C(c2ccccc2)c2ccccc2)CSSC[C@@H](C(N)=O)NC(=O)C[C@H](Cc2ccccc2)NC(=O)[C@H](CCCCNC(=O)COCCOCCNC(=O)COCCOCCNC(=O)CCCCCNC(=O)CCCCCCCCCCCCCCCCC(=O)O)NC1=O` [Compd 23] (Isovaleryl-ETH[Dip]PCIK([AEEA-AEEA-Ahx-C18 diacid])[β3hF]C-NH2; disulfide 6-10) are 10 to 100 nM and 7.00 to 8.00.
As for `CC(C)CC(=O)N[C@@H](CCC(=O)O)C(=O)N[C@H](C(=O)N[C@@H](Cc1cnc[nH]1)C(=O)N[C@H](C(=O)N1CCC[C@H]1C(=O)N[C@H]1CSSC[C@@H](C(=O)N(C)[C@@H](CCCCNC(=O)COCCOCCNC(=O)COCCOCCNC(=O)C[N+](C)(C)CCNC(=O)CCCCCCCCCCCCCCCCC(=O)O)C(=O)N[C@H](CC(=O)N[C@H](CCCCN)C(N)=O)Cc2ccccc2)NC1=O)C(c1ccccc1)c1ccccc1)[C@@H](C)O` [compound 283] (Isovaleryl-ETH[Dip]PCC[NMeK]([AEEA-AEEA-X1])[β3hF][dK]-NH2; disulfide 6-7), the DC50 at ferroportin [1] (setting [3]) lay within 10 to 100 nM. The pIC50 on ferroportin [2] (setting [4]) was 7.00 to 8.00.
On the same counts, the results for `CC(C)CC(=O)N[C@@H](CCC(=O)O)C(=O)N[C@H](C(=O)N[C@@H](Cc1c[nH]cn1)C(=O)N[C@H](C(=O)N1CCC[C@H]1C(=O)N[C@H]1CSSC[C@@H](C(=O)N(C)[C@@H](CCCCNC(=O)COCCOCCNC(=O)COCCOCCNC(=O)[C@H](CN)NC(=O)CCCCCCCCCCCCCCCCC(=O)O)C(=O)N[C@H](CC(=O)N[C@H](CCCCN)C(=O)N(C)[C@@H](CO)C(N)=O)Cc2ccccc2)NC1=O)C(c1ccccc1)c1ccccc1)[C@@H](C)O` [compound 260] (Isovaleryl-ETH[Dip]PCC[NMeK]([AEEA-AEEA-Dap-C18 diacid])[β3hF][dK][NMeS]-NH2; disulfide 6-7) are 10 to 100 nM and 7.00 to 8.00.
As to `CCCCCCCCCCCCCCCC(=O)NCCCCCC(=O)NCCCC[C@@H](C(=O)N[C@H](C(=O)N[C@H](CCCCN)C(N)=O)C(c1ccccc1)c1ccccc1)N(C)C(=O)[C@@H]1CSSC[C@H](NC(=O)[C@@H]2CCCN2C(=O)[C@@H](NC(=O)[C@H](Cc2cnc[nH]2)NC(=O)[C@@H](NC(=O)[C@H](CCC(=O)O)NC(=O)CC(C)C)[C@@H](C)O)C(c2ccccc2)c2ccccc2)C(=O)N1` [compound 196] (Isovaleryl-ETH[Dip]PCC[NMeK]([Ahx-Palmitoyl])[Dip][dK]-NH2; disulfide 6-7), the DC50 on ferroportin [1] (setting [5]) lay within 1 to 10 nM. Moreover, the pIC50 at ferroportin [2] (setting [6]) is 8.00 to 9.00.
The corresponding values for `CCCCCCCCCCCCCCCC(=O)NCCCCCC(=O)NCCCC[C@@H](C(=O)NCC(c1ccccc1)c1ccccc1)N(C)C(=O)[C@@H]1CSSC[C@H](NC(=O)[C@@H]2CCCN2C(=O)[C@@H](NC(=O)[C@H](Cc2cnc[nH]2)NC(=O)[C@@H](NC(=O)[C@H](CCC(=O)O)NC(=O)CC(C)C)[C@@H](C)O)C(c2ccccc2)c2ccccc2)C(=O)N1` [compound 163] (Isovaleryl-ETH[Dip]PCC[NMeK]([Ahx-Palmitoyl])-NHCH2CHPh2; disulfide 6-7) are 10 to 100 nM and 8.00 to 9.00.
On the same counts, the results for `CCCCCCCCCCCCCCCC(=O)NCCCC[C@H]1C(=O)N[C@@H](C(c2ccccc2)c2ccccc2)C(=O)N[C@@H](C(N)=O)CCCCNC(=O)CC[C@H](NC(=O)CC(C)C)C(=O)N[C@@H]([C@@H](C)O)C(=O)N[C@@H](Cc2c[nH]cn2)C(=O)N[C@@H](C(c2ccccc2)c2ccccc2)C(=O)N2CCC[C@H]2C(=O)N[C@H]2CSSC[C@H](NC2=O)C(=O)N1C` [compound 142] (Isovaleryl-ETH[Dip]PCC[NMeK](Palmitoyl)[Dip][dK]-NH2; lactam 1-10; disulfide 6-7) are 1 to 10 nM and 7.00 to 8.00.
As for `CC[C@H](C)[C@@H]1NC(=O)[C@@H](NC(=O)[C@@H]2CCCN2C(=O)[C@@H](NC(=O)[C@H](Cc2c[nH]cn2)NC(=O)[C@@H](NC(=O)[C@H](CCC(=O)O)NC(=O)CC(C)C)[C@@H](C)O)C(c2ccccc2)c2ccccc2)CSSC[C@@H](C(N)=O)NC(=O)C[C@H](Cc2ccccc2)NC(=O)[C@H](CCCCNC(=O)COCCOCCNC(=O)COCCOCCNC(=O)CC[C@H](NC(=O)CCCCCCCCCCCCCCCCC(=O)O)C(=O)O)NC1=O` [Compd 32] (Isovaleryl-ETH[Dip]PCIK([AEEA-AEEA-γGlu-C18 diacid])[β3hF]C-NH2; disulfide 6-10), at ferroportin [1] (setting [7]), the DC50 lay in the range of 10 to 100 nM. Besides, at ferroportin [2] (setting [8]), the pIC50 was 6.30 to 7.00.
Regarding `COC(=O)CCC(CCCC(C)C)C(=O)N[C@H](C(=O)N[C@@H](Cc1c[nH]cn1)C(=O)N[C@H](C(=O)N1CCC[C@H]1C(=O)N[C@H]1CSSC[C@@H](C(=O)N(C)[C@@H](CCCCNC(=O)CCCCCNC(=O)C[N+](C)(C)CCNC(=O)CCCCCCCCCCCCCCCCC(=O)O)C(=O)N[C@H](C(=O)N[C@H](CCCCN)C(N)=O)C(c2ccccc2)c2ccccc2)NC1=O)C(c1ccccc1)c1ccccc1)[C@@H](C)O` (single isomer, unassigned) [compound 138], at ferroportin [1] (setting [5]), the DC50 fell in the range of 10 to 100 nM. Also, at ferroportin [2] (setting [6]), the negative logarithm of the IC50 (pIC50) is 6.30 to 7.00.
With `CC[C@H](C)[C@@H]1NC(=O)[C@@H](NC(=O)[C@@H]2CCCN2C(=O)[C@H](Cc2ccccc2)NC(=O)[C@H](Cc2c[nH]cn2)NC(=O)[C@@H](NC(=O)[C@H](CCC(=O)O)NC(=O)CC(C)C)[C@@H](C)O)C(C)(C)SSC(C)(C)[C@@H](C(=O)N[C@@H](CCCCN)C(N)=O)NC(=O)CNC(=O)[C@H](CCCCN)NC(=O)[C@H](CO)NC(=O)[C@H](CCCNC(=N)N)NC(=O)[C@@H]2CCCN2C(=O)[C@H](CCC(=O)O)NC(=O)[C@H](Cc2ccccc2)NC(=O)[C@H](CCCCNC(=O)COCCOCCNC(=O)COCCOCCNC(=O)CC[C@H](NC(=O)CCCCCCCCCCCCCCCCC(=O)O)C(=O)O)NC1=O` [Compd 18] (Isovaleryl-ETHFP[Pen]IK([AEEA-AEEA-γGlu-C18 diacid])FEPRSKG[Pen]K-NH2; disulfide 6-16), the DC50 on ferroportin [1] (setting [7]) was more than 500 nM. Besides, the negative-log IC50 (pIC50) at ferroportin [2] (setting [8]) was less than 6.30.
